# Key:
# HGSOC cells = assay: Apoptosis in inhibitor-treated HGSOC cells; format: cell-based, human; details: increasing doses
# CLK2 = target: T1, CLK2 (Homo sapiens, UniProt P49760); assay: MIB/MS kinome profiling of inhibitor-treated OVSAHO cells; format: cell-based; details: 2 μM, 4 hours
# T1 construct: endogenous in cells; host or cells: OVSAHO
# Description: (§1) OVSAHO cells were treated with 2 μM of inhibitor for 4 hours and analyzed by MIB/MS. Scatterplot depicts difference in kinase MIB-binding of drug treated relative to control DMSO as determined by Students T-test.
# (§2) MIB-based kinome profiling was performed on several of these molecules in HGSOC cells to determine kinome-wide inhibition profiles.
# (§3) Experiments using MIB/MS were performed as previously described (Duncan et al., Cell, 2012, 149, 307-321; and Kurimchak et al., Cell Reports, 2016, 16, 1273-1286). Briefly, cells or tumors were lysed on ice in buffer containing 50 mM HEPES (pH 7.5), 0.5% Triton X-100, 150 mM NaCl, 1 mM EDTA, 1 mM EGTA, 10 mM sodium fluoride, 2.5 mM sodium orthovanadate, 1× protease inhibitor cocktail (Roche), and 1% each of phosphatase inhibitor cocktails 2 and 3 (Sigma). Particulate was removed by centrifugation of lysates at 13,000 rpm for 10 minutes at 4° C. and filtration through 0.2 μm syringe filters. Protein concentrations were determined by BCA analysis (Thermo). To compare kinome signatures within and across such large sample sizes, a super-SILAC method was designed (Neubert et al., Nat. Meth., 2010, 7, 361-362) consisting of a cocktail of cancer cell lines that encompasses the activity of the “cancer kinome” to be used as a control for individual samples. Five cancer cell lines were selected from the NCI-60 panel (UACC257, MOLT4, COL0205, ACHN and PC3) that differed in their origin, gene expression patterns and mutation status. The cancer cell lines were labeled using SILAC and mixed equally providing a diverse SILAC ([^13C6,^15N4] arginine (Arg^10) and […] (Lys^8)) heavy kinome reference standard (HKS) to be used repeatedly in kinome profiling assays. An equal amount of the HKS was added to the non-labeled sample (cell, tumor or normal tissue) providing a quantitative strategy to compare kinome activity/levels across samples, amongst treatments and, importantly, across time. Endogenous kinases were isolated by flowing lysates over kinase inhibitor-conjugated Sepharose beads (purvalanol B, VI16832, PP58 and CTx-0294885 beads were used) in 10 ml gravity-flow columns. After 2×10 ml column washes in high-salt buffer and 1×10 ml wash in low-salt buffer (containing 50 mM HEPES (pH 7.5), 0.5% Triton X-100, 1 mM EDTA, 1 mM EGTA, and 10 mM sodium fluoride, and 1M NaCl or 150 mM NaCl, respectively), retained kinases were eluted from the column by boiling in 2×500 μL of 0.5% SDS, 0.1 M TrisHCl (pH 6.8), and 1% 2-mercaptoethanol. Eluted peptides were reduced by incubation with 5 mM DTT at 60° C. for 25 minutes, alkylated with 20 mM iodoacetamide at room temperature for 30 minutes in the dark and alkylation was quenched with DTT. Samples were concentrated to approximately 100 μL with Millipore 10 kD cutoff spin concentrators. Detergent was removed by chloroform/methanol extraction, and the protein pellet was resuspended in 100 mM ammonium bicarbonate and digested with sequencing-grade modified trypsin (Promega) overnight at 37° C. […]
# (§4) Proteolytic peptides were resuspended in 0.1% formic acid and separated with a Thermo RSLC Ultimate 3000 on a Thermo Easy-Spray C18 PepMap 75 μm×50 cm C-18 2 μm column with a 240 minute gradient of 4-25% acetonitrile with 0.1% formic acid at 300 nL/min and 50° C. Eluted peptides were analyzed by a Thermo Q Exactive plus mass spectrometer utilizing a top 15 methodology in which the 15 most intense peptide precursor ions were subjected to fragmentation. […]
# CDK8 = target: T2, CDK8 (Homo sapiens, UniProt P49336); assay: as above; format: cell-based; details: 2 μM, 4 hours
# T2 construct: endogenous in cells; host or cells: OVSAHO
# Description: as §1, §2, §3, §4
# MAP3K12 = target: T3, MAP3K12 (Homo sapiens, UniProt Q12852); assay: as above; format: cell-based; details: 2 μM, 4 hours
# T3 construct: endogenous in cells; host or cells: OVSAHO
# T3 sequence (Q12852 1-859): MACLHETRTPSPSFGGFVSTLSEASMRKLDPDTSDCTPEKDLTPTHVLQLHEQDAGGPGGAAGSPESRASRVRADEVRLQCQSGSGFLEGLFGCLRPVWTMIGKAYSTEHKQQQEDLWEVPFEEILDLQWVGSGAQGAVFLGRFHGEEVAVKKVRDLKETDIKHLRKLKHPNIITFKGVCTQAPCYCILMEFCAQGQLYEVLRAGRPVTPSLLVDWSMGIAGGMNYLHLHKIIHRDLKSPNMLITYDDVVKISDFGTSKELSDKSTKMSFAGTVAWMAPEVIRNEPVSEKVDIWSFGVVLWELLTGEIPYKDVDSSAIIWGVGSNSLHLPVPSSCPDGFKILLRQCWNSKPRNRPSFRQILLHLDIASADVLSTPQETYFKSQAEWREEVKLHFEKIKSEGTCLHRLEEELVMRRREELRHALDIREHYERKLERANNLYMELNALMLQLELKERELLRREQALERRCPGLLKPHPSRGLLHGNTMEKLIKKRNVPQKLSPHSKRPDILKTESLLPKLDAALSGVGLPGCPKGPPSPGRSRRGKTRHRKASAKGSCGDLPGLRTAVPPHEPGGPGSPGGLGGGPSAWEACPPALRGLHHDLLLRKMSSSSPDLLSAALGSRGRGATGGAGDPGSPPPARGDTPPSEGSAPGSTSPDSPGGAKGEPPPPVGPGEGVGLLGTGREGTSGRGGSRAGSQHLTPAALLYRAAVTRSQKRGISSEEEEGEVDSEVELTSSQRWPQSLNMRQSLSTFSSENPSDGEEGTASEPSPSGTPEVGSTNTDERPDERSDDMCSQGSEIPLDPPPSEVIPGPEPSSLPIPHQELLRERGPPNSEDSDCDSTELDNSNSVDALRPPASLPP
# Description: as §1, §2, §3, §4
# AAK1 = target: T4, AAK1 (Homo sapiens, UniProt Q2M2I8); assay: as above; format: cell-based; details: 2 μM, 4 hours
# T4 construct: endogenous in cells; host or cells: OVSAHO
# Description: as §1, §2, §3, §4
# PRCKD = target: T5, PRCKD (Homo sapiens, UniProt Q05655); assay: as above; format: cell-based; details: 2 μM, 4 hours
# T5 construct: endogenous in cells; host or cells: OVSAHO
# Description: as §1, §2, §3, §4
# T2 sequence (P49336 whole entry): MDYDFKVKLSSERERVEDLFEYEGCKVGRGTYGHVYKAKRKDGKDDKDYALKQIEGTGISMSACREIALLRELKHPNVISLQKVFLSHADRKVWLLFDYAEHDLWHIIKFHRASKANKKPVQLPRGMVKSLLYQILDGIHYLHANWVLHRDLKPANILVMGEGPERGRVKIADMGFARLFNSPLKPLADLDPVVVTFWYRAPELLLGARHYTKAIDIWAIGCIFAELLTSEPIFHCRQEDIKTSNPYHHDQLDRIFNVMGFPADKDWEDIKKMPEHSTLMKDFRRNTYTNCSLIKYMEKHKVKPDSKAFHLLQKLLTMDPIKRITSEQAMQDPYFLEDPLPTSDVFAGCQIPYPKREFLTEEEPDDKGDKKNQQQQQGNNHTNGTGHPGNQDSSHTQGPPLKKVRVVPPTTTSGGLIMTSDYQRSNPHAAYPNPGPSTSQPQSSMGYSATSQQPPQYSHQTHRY
# T2 sequence (P24863 whole entry partner): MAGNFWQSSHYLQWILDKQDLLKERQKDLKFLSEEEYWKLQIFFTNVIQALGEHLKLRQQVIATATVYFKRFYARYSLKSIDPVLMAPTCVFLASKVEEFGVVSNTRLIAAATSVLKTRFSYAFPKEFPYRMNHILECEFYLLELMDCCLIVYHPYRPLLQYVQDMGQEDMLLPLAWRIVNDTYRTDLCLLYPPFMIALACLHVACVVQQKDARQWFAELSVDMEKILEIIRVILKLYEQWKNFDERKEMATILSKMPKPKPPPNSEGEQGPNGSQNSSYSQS
# T4 sequence (Q2M2I8 whole entry): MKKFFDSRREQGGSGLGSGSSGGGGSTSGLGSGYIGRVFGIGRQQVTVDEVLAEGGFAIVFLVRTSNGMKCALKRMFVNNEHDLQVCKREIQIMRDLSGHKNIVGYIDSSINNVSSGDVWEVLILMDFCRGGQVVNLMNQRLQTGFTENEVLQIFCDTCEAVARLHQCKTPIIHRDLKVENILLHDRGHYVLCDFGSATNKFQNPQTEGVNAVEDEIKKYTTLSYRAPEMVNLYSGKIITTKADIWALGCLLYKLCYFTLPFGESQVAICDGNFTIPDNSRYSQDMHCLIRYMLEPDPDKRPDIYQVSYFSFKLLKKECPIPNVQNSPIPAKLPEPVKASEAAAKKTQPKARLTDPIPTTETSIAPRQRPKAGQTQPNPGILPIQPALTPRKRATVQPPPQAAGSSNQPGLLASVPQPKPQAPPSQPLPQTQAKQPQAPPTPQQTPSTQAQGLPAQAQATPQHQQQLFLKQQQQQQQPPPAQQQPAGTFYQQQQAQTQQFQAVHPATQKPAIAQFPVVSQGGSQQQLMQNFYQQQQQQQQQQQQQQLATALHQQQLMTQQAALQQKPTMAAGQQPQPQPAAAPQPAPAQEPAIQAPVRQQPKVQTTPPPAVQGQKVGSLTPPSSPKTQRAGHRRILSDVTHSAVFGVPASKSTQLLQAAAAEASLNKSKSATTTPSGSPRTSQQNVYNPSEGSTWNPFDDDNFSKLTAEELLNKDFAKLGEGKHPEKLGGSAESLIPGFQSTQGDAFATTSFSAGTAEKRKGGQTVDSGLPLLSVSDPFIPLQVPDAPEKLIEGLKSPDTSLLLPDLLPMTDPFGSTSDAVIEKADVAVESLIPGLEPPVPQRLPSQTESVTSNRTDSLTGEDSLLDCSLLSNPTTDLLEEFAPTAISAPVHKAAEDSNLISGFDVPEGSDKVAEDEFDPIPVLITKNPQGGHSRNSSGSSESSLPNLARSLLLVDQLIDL
# T1 sequence (P49760 whole entry): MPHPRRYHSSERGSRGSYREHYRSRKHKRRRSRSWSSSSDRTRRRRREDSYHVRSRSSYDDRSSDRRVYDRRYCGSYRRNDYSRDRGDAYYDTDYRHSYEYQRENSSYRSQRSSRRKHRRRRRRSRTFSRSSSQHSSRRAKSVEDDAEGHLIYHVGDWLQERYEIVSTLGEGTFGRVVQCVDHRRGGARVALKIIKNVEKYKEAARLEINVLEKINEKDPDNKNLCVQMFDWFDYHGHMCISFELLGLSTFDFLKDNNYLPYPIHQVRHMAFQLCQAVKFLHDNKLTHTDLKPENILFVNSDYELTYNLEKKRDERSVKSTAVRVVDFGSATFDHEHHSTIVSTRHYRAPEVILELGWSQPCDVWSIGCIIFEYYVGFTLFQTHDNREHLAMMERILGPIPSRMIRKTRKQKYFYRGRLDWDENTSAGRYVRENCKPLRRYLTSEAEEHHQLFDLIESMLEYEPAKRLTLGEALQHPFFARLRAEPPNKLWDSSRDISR
# T5 sequence (Q05655 whole entry): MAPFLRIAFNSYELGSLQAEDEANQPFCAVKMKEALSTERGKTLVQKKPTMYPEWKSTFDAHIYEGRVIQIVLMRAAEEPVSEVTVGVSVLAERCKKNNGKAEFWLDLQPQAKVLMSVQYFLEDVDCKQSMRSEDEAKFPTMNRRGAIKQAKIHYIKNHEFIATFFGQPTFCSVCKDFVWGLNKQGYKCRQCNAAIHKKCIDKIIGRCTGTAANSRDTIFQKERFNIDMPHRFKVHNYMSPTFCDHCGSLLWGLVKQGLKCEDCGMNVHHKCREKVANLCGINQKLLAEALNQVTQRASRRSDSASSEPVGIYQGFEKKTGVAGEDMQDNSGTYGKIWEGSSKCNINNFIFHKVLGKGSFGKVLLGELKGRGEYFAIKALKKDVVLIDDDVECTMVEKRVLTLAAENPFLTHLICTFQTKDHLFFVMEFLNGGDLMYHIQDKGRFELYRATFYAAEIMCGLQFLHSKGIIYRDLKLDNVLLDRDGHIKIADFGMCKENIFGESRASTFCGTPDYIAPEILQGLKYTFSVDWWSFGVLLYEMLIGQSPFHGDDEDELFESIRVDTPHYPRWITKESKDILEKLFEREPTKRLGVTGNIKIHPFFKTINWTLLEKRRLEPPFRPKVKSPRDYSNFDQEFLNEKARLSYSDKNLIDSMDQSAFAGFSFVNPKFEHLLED
smiles,measurement,setting,value
Cc1[nH]nc2ccc(-c3cncc(OC[C@@H](N)Cc4ccccc4)c3)cc12 [A-674563],apoptosis,HGSOC cells,induced apoptosis
same,MIB-binding of CLK2,CLK2,inhibited
same,MIB-binding of CDK8,CDK8,inhibited
same,MIB-binding of MAP3K12,MAP3K12,inhibited
same,MIB-binding of AAK1,AAK1,inhibited
same,MIB-binding of PRCKD,PRCKD,inhibited

# Source: US20210318318A1, “Kinase Activity In Tumors” (Institute For Cancer Research d/b/a The Research Institute …, priority 2018, published 2021)
